Molecules are shown by their SMILES.

The target in assay [1] is T1, Potassium voltage-gated channel subfamily A member 3 (Homo sapiens, UniProt P22001). Put plainly: Inhibition in Kv1.3 expressed in human Jurkat cells by patch clamp method. The assay is classed as cell-based. (Patch clamp records ionic current or voltage across a cell membrane.)
For assay [2], the target named is T1, Potassium voltage-gated channel subfamily A member 3. Put plainly: Inhibition in Kv1.3 expressed in […] by patch clamp method.

T1 sequence (P22001 whole entry): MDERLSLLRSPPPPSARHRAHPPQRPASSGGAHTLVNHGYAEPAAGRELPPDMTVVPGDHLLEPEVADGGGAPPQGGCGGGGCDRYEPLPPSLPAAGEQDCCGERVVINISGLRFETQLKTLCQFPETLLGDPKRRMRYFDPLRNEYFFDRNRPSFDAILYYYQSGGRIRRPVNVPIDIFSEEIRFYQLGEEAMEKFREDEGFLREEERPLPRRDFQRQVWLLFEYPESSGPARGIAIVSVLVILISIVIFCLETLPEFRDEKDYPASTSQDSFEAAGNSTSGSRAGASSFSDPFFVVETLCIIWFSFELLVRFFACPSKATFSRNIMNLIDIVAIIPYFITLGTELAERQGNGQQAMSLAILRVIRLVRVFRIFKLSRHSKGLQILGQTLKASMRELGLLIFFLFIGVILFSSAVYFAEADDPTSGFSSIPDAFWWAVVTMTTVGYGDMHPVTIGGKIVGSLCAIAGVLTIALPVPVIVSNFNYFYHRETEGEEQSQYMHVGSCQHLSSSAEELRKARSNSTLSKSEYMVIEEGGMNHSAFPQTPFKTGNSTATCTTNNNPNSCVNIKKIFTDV

The term EC50 denotes the concentration that produces a half-maximal response. `COc1cccc(/C=C(\C)C(=O)c2c(O)c(OC)c3occc3c2OC)c1`: in assay [1], the EC50 turned out to be 3000 nM. This lies in the single-digit micromolar range. Regarding `COc1cccc(/C=C/C(=O)c2cc3ccoc3c(OC)c2O)c1`, in assay [1], the EC50 was determined as 1700 nM. On to `COc1cccc(/C=C/C(=O)c2cc(OC)c3occc3c2OC)c1`, for which the concentration giving a half-maximal response (EC50) in assay [1] turned out to be 2400 nM.

The compound `COc1c(C(=O)/C=C/c2ccccc2)c(O)cc2occc12` registered an EC50 in assay [2] of 17000 nM.

In assay [2], `COc1c(C(=O)/C=C/c2ccccc2)c(O)c(OC)c2occc12` displayed a half-maximal effective concentration (EC50) of 400 nM. `COc1c(C(=O)/C=C/c2ccccc2)cc(OC)c2occc12` showed an EC50 in assay [1] of 2400 nM. With `COc1cccc(/C=C/C(=O)c2c(O)c(OC)c3occc3c2OC)c1`, the figures for the EC50 in assay [2] and in assay [1] were 800 nM and 900 nM, respectively.
